From patent publication US20240140941A1, “DERIVATIVE OF 2,5-DIKETOPIPERAZINE COMPOUND, AND PREPARATION METHOD THEREFOR, PHARMACEUTICAL COMPOSITION THEREOF AND USE THEREOF” (DALIAN WZ PROBIOTICS AD HEALTH CO., LTD, priority 2020, published 2024) come the findings set out here.

What is called IC50 is the midpoint of a concentration-inhibition curve.

Where a name gives a salt, the structure may show the parent alone. Read-outs that look alike come from different tables or passages of the source.

What all share (type): cell-based, human
In one test the test system is HT-29. Description: Inhibition test on cell proliferation (MTT), HT-29. Particulars: Homo sapiens, HT-29, 72 h, 72 hours of drug treatment. On the procedure:
(§1) Tumor cells (NCI-H460, BxPC-3, HT-29, HCC-LM3) in the logarithmic growth phase were digested, centrifuged, and the supernatants were removed. Cells were resuspended by adding fresh culture medium, and counted using a cell counting plate. 100 μL of culture medium (containing cells) was added to a 96-well plate according to the standard of 2000 to 6000 cells per well and incubated in an incubator (37° C., 5% CO2) for 24 hours. After the cells were completely adhered to the wall, the test sample and Plinabulin were diluted to different concentrations using fresh culture medium, and 4 wells were set for each concentration. After 72 hours of drug treatment, the culture medium was removed, and 20 μL of MTT at a concentration of 5 mg/mL was added to each well. After 3-4 hours in the incubator, the MTT was discarded, and 100 μL of DMSO was added to each well, and placed in a 96-well plate shaker to completely dissolve the purple formazan. Subsequently, the absorbance (OD value) was detected at a wavelength of 490 nm using a microplate reader. The experiment also required setting up zero-setting wells (blank culture medium, MTT, DMSO). Cell inhibition rate=1−(OD value of drug-dosed group−OD value of zero-setting group)/(OD value of blank group−OD value of zero-setting group)×100%.

The test system of another test is BxPC-3. Description: Inhibition test on cell proliferation (MTT), BxPC-3. Particulars: read-out: IC50 (nM) BxPC-3. On the procedure: as §1
For another test, the system named is NCI-H460. As to the kind of experiment: Inhibition test on cell proliferation (MTT), NCI-H460. On the procedure:
as §1

For a further test, the system named is HCC-LM3. As to the kind of experiment: Inhibition test on cell proliferation (MTT), HCC-LM3. Conditions: read-out: IC50 (nM) HCC-LM3. On the procedure:
as §1

The mark [1] stands for this setting: Homo sapiens, BXPC-3, 72 h, 72 hours of drug treatment, MTT.
Setting [2] is: Homo sapiens, NCI-H460, 72 h, 72 hours of drug treatment, MTT, read-out: IC50 (nM) NCI-H460.
The mark [3] stands for this setting: Homo sapiens, NCI-H460, 72 h, read-out: IC50 (nM) NCI-H460, 72 hours of drug treatment, MTT.
The mark [4] stands for this setting: 72 hours of drug treatment, MTT, mesylate.
[5] abbreviates: Homo sapiens, HCCLM3, 72 h, 72 hours of drug treatment, MTT.

As to `O=c1[nH]/c(=C\c2ncn(CCCN3CCOCC3)c2C2CC2)c(=O)[nH]/c1=C\c1cc(F)ccc1F` [PLN-2-8, (3Z,6Z)-3-(2,5-difluorophenyl)methylene-6-((5-cyclopropyl-1-(−3-morpholinyl)propylimidazol-4-yl)methylene)piperazine-2,5-dione], the concentration for half-maximal inhibition (IC50) in the test with HT-29 was 13.4 ± 2.08 nM; in the test with BxPC-3 (setting [1]), 8.8 ± 0.16 nM; in the test with NCI-H460 (setting [2]) it was 15.2 ± 2.82 nM.
In the case of `CC(C)C(=O)N1CCN(CCCn2cnc(/C=c3\[nH]c(=O)/c(=C/c4cccc(C(=O)c5ccc(F)cc5)c4)[nH]c3=O)c2C(C)C)CC1` [PLN-2-32, (3Z,6Z)-3-(3-(p-fluorobenzoyl)phenyl)methylene-6-((5-isopropyl-1-(3-N-isobutyrylpiperazinyl)propylimidazol-4-yl)methylene)piperazine-2,5-dione], the IC50 was 4.16 ± 0.78 nM in the test with BxPC-3 (setting [1]) and 7.95 ± 1.29 nM with NCI-H460 (setting [2]).
`CC(C)c1c(/C=c2\[nH]c(=O)/c(=C/c3cccc(C(=O)c4ccc(F)cc4)c3)[nH]c2=O)ncn1CCCN1CCN(C(=O)C(C)(C)C)CC1` [PLN-2-33, (3Z,6Z)-3-(3-(p-fluorobenzoyl)phenyl)methylene-6-((5-isopropyl-1-(3-N-tert-butyrylpiperazinyl)propylimidazol-4-yl)methylene)piperazine-2,5-dione]: the 50% inhibitory concentration (IC50) is 6.39 ± 2.51 nM with BxPC-3 (Homo sapiens, BXPC-3, 72 h) and 9.91 ± 2 nM in the test on NCI-H460 (setting [3]).
Consider `CCC(CC)C(=O)N1CCN(CCCn2cnc(/C=c3\[nH]c(=O)/c(=C/c4cccc(C(=O)c5ccc(F)cc5)c4)[nH]c3=O)c2C(C)C)CC1` [PLN-2-34, (3Z,6Z)-3-(3-(p-fluorobenzoyl)phenyl)methylene-6-((5-isopropyl-1-(3-N-(2-ethylbutyryl)piperazinyl)propylimidazol-4-yl)methylene)piperazine-2,5-dione], for which the IC50 was determined as 17.5 ± 0.27 nM in the test with BxPC-3 (setting [1]) and 20.1 ± 3.67 nM in the test with NCI-H460 (setting [2]).
Turning to `CC(C)c1c(/C=c2\[nH]c(=O)/c(=C/c3cccc(C(=O)c4ccc(F)cc4)c3)[nH]c2=O)ncn1CCCN1CCN(C(=O)C2CC2)CC1` [PLN-2-35, (3Z,6Z)-3-(3-(p-fluorobenzoyl)phenyl)methylene-6-((5-isopropyl-1-(3-N-cyclopropanecarbonylpiperazinyl)propylimidazol-4-yl)methylene)piperazine-2,5-dione], the 50% inhibitory concentration (IC50) in the test with BxPC-3 (setting [1]) is 2.23 ± 2.2 nM; with NCI-H460 (setting [2]), 5.28 ± 0.71 nM.
Take `CC(C)c1c(/C=c2\[nH]c(=O)/c(=C/c3cccc(C(=O)c4ccc(F)cc4)c3)[nH]c2=O)ncn1CCCN1CCN(C(=O)C2CCCC2)CC1` [PLN-2-37, (3Z,6Z)-3-(3-(p-fluorobenzoyl)phenyl)methylene-6-((5-isopropyl-1-(3-N-cyclopentnecarbonylpiperazinyl)propylimidazol-4-yl)methylene)piperazine-2,5-dione]: the IC50 is 6.23 ± 0.15 nM with BxPC-3 (Homo sapiens, BXPC-3, 72 h) and 7.86 ± 1.37 nM with NCI-H460 (setting [3]).
On to `CC(C)=CC(=O)N1CCN(CCCn2cnc(/C=c3\[nH]c(=O)/c(=C/c4cccc(C(=O)c5ccc(F)cc5)c4)[nH]c3=O)c2C(C)C)CC1` [PLN-2-40, (3Z,6Z)-3-(3-(p-fluorobenzoyl)phenyl)methylene-6-((5-isopropyl-1-(3-N-(3,3-dimethyl)acryloylpiperazinyl)propylimidazol-4-yl)methylene)piperazine-2,5-dione], for which the concentration for half-maximal inhibition (IC50) with BxPC-3 (setting [1]) came to 4.4 ± 3.1 nM; in the test on NCI-H460 (setting [2]) it was 7.56 ± 0.33 nM.
For `CC(C)c1c(/C=c2\[nH]c(=O)/c(=C/c3cccc(C(=O)c4ccc(F)cc4)c3)[nH]c2=O)ncn1CCCN1CCN(C(=O)c2ccccc2)CC1` [PLN-2-41, (3Z,6Z)-3-(3-(p-fluorobenzoyl)phenyl)methylene-6-((5-isopropyl-1-(3-N-benzoylpiperazinyl)propylimidazol-4-yl)methylene)piperazine-2,5-dione], in that order: 3.25 ± 2.13 nM and 5.55 ± 1.68 nM.
For `CC(C)c1c(/C=c2\[nH]c(=O)/c(=C/c3cccc(C(=O)c4ccc(F)cc4)c3)[nH]c2=O)ncn1CCCN1CCN(S(C)(=O)=O)CC1` [PLN-2-42, (3Z,6Z)-3-(3-(p-fluorobenzoyl)phenyl)methylene-6-((5-isopropyl-1-(3-N-methylsulfonylpiperazinyl)propylimidazol-4-yl)methylene)piperazine-2,5-dione], the IC50 with BxPC-3 (Homo sapiens, BXPC-3, 72 h) was determined as 3.38 ± 0.53 nM; with NCI-H460 (setting [3]), 6.59 ± 1.29 nM.
Consider `CC(C)NC(=O)N1CCN(CCCn2cnc(/C=c3\[nH]c(=O)/c(=C/c4cccc(C(=O)c5ccc(F)cc5)c4)[nH]c3=O)c2C(C)C)CC1` [PLN-2-44, (3Z,6Z)-3-(3-(p-fluorobenzoyl)phenyl)methylene-6-((5-isopropyl-1-(3-N-isopropylaminocarbonylpiperazinyl)propylimidazol-4-yl)methylene)piperazine-2,5-dione], for which the figures for the half-maximal inhibitory concentration (IC50) in the test with BxPC-3 (setting [1]) and in the test on NCI-H460 (setting [2]) were 3.84 ± 0.12 nM and 8.68 ± 0.78 nM, respectively.
For `CC(C)c1c(/C=c2\[nH]c(=O)/c(=C/c3cccc(C(=O)c4ccc(F)cc4)c3)[nH]c2=O)ncn1CCCN1CCN(C(=O)NC(C)(C)C)CC1` [PLN-2-45, (3Z,6Z)-3-(3-(p-Fluorobenzoyl)phenyl)methylene-6-((5-isopropyl-1-(3-N-tert-butylaminocarbonylpiperazinyl)propylimidazol-4-yl)methylene)piperazine-2,5-dione], in that order: 1.79 ± 0.49 nM and 6.43 ± 1.98 nM.
For `CC(C)c1c(/C=c2\[nH]c(=O)/c(=C/c3cccc(C(=O)c4ccc(F)cc4)c3)[nH]c2=O)ncn1CCCN1CCN(C(=O)NC2CCCC2)CC1` [PLN-2-46, (3Z,6Z)-3-(3-(p-fluorobenzoyl)phenyl)methylene-6-((5-isopropyl-1-(3-N-cyclopentylaminocarbonylpiperazinyl)propylimidazol-4-yl)methylene)piperazine-2,5-dione], in that order: 9.09 ± 0.89 nM and 21.6 ± 0.52 nM.
For `CC(C)c1c(/C=c2\[nH]c(=O)/c(=C/c3cccc(C(=O)c4ccc(F)cc4)c3)[nH]c2=O)ncn1CCCN1CCN(C(=O)NC2CCCCC2)CC1` [PLN-2-47, (3Z,6Z)-3-(3-(p-fluorobenzoyl)phenyl)methylene-6-((5-isopropyl-1-(3-N-cyclohexylaminocarbonylpiperazinyl)propylimidazol-4-yl)methylene)piperazine-2,5-dione], in that order: 3.62 ± 0.48 nM and 6.56 ± 0.32 nM.
Turning to `CC(C)c1c(/C=c2\[nH]c(=O)/c(=C/c3cc(F)ccc3F)[nH]c2=O)ncn1CCCN1CCN(C(=O)OC(C)(C)C)CC1` [PLN-2-48], the half-inhibitory concentration (IC50) in the test with BxPC-3 (setting [1]) turned out to be 33.1 ± 0.98 nM; with NCI-H460 (setting [2]), 39.2 ± 1.85 nM.
Consider `CC(C)c1c(/C=c2\[nH]c(=O)/c(=C/c3ccc(F)c(F)c3)[nH]c2=O)ncn1CCCN1CCOCC1` [PLN-2-63-2, (3Z,6Z)-3-(3,4-Difluorophenyl)methylene-6-((5-isopropyl-1-(3-morpholinyl)propylimidazol-4-yl)methylene)piperazine-2,5-dione, mesylate], for which the half-maximal inhibitory concentration (IC50) worked out at 69.5 ± 4.26 nM with HCC-LM3 (setting [4]); 50.9 ± 6.75 nM in the test on BxPC-3 (setting [4]); 95.9 ± 3.66 nM with NCI-H460 (72 hours of drug treatment, MTT, mesylate, read-out: IC50 (nM) NCI-H460).
As to `CC(=O)N1CCN(CCCn2cnc(/C=c3\[nH]c(=O)/c(=C/c4cccc(F)c4)[nH]c3=O)c2C(C)C)CC1` [PLN-2-64, (3Z,6Z)-3-(3-Fluorophenyl)methylene-6-(5-isopropyl-1-(3-(4-(acetyl)piperazinyl)propylimidazol-4-yl)methylene)piperazine-2,5-dione], the figures for the IC50 in the test with HCC-LM3 (setting [5]), with BxPC-3 (setting [1]) and in the test on NCI-H460 (setting [2]) were 26.1 ± 2.14 nM, 7.7 ± 0.39 nM and 18.5 ± 0.3 nM, respectively.
On to `CCC(=O)N1CCN(CCCn2cnc(/C=c3\[nH]c(=O)/c(=C/c4cccc(F)c4)[nH]c3=O)c2C(C)C)CC1` [PLN-2-65, (3Z,6Z)-3-(3-Fluorophenyl)methylene-6-(5-isopropyl-1-(3-(4-(propionyl)piperazinyl)propylimidazol-4-yl)methylene)piperazine-2,5-dione], for which the results for the concentration for half-maximal inhibition (IC50) in the test on HCC-LM3 (setting [5]), with BxPC-3 (setting [1]) and in the test with NCI-H460 (setting [2]) were 20.9 ± 0.97 nM, 10.3 ± 2.18 nM and 17.4 ± 1.45 nM, respectively.
In the case of `CCCC(=O)N1CCN(CCCn2cnc(/C=c3\[nH]c(=O)/c(=C/c4cccc(F)c4)[nH]c3=O)c2C(C)C)CC1` [PLN-2-66, (3Z,6Z)-3-(3-Fluorophenyl)methylene-6-(5-isopropyl-1-(3-(4-(n-butyryl)piperazinyl)propylimidazol-4-yl)methylene)piperazine-2,5-dione], the half-maximal inhibitory concentration (IC50) in the test on HCC-LM3 (Homo sapiens, HCCLM3, 72 h) came out at 43.9 ± 7.94 nM; with BxPC-3 (Homo sapiens, BXPC-3, 72 h) it was 30.4 ± 0.35 nM; with NCI-H460 (setting [3]), 40.3 ± 3.72 nM.
For the compound `CC(CN1CCOCC1)Cn1cnc(/C=c2\[nH]c(=O)/c(=C/c3cccc(F)c3)[nH]c2=O)c1C(C)C` (centres unmarked) [PLN-2-67, (3Z,6Z)-3-(3-Fluorophenyl)methylene-6-((5-isopropyl-1-(3-morpholinyl)-2-methylpropylimidazol-4-yl)methylene)piperazine-2,5-dione], the IC50 is 7.7 ± 0.04 nM in the test on HCC-LM3 (setting [5]), 3.73 ± 0.06 nM in the test with BxPC-3 (setting [1]) and 8.39 ± 0.58 nM in the test with NCI-H460 (setting [2]).
